One data set relates to Staphylococcus aureus. The following applies: cited from earlier work.
A further data set concerns Streptococcus pneumoniae. The note with it: cited from earlier work.
In the next data set the test system is Haemophilus influenzae. The following applies: cited from earlier work.
Another data set deals with Moraxella catarrhalis. The note with it: cited from earlier work.
The subject of the next data set is Pseudomonas aeruginosa. The note with it: cited from earlier work.
In another data set the test system is rats. The following applies: oral doses up to 100 mg/kg/day; cited from earlier work.
Data set [1] is described as follows: Loss on drying (weight loss upon heating). The note with it: solid held at 40° C. 24 hours, then 125° C. oven one hour. The data set is classed as physicochemical. The method, then:
To assess the form of ciprofloxacin samples described in the present disclosure, a comparison experiment is conducted to evaluate the sample's loss of weight upon heating. […] The conditions and results of the experiment are summarized below: Experimental Setup—Loss on Drying: • If suspension: Pipette Cipro suspension onto filter on vacuum filter flask • Transfer filter/dry powder to 40° C. oven, hold 24 hours • Transfer solid to pre-weighed aluminum pan and weigh solid • Transfer pan to 125° C. oven, hold one hour • Weigh again and determine weight loss due to 125° C.

The nature of data set [2]: Particle size (D90) during manufacturing process. The data set is classed as physicochemical.

The structures appear in SMILES notation. Like-named read-outs stand apart in the source and are kept apart here.

For the molecule `O=C(O)c1cn(C2CC2)c2cc(N3CCNCC3)c(F)cc2c1=O` [Ciprofloxacin, 1-cyclopropyl-6-fluoro-1,4-dihydro-4-oxo-7-(1-piperazinyl)-3-quinolinecarboxylic acid], the “antimicrobial activity against isolates” value in the data set with Staphylococcus aureus, in the data set on Streptococcus pneumoniae, with Haemophilus influenzae, in the data set with Moraxella catarrhalis and in the data set on Pseudomonas aeruginosa was “active against most isolates” each time. The impairment of fertility result in the data set on rats is given as “no evidence of impairment”.
For the molecule `O=C(O)c1cn(C2CC2)c2cc(N3CCNCC3)c(F)cc2c1=O` [Sample 1], the “Weight Loss on Drying” value in data set [1] amounted to 0.1%. Besides, the “particle size D90” value in data set [2] (listed as Ciprofloxacin free base anhydrous API powder) is on record as “under 15 μm”.
Turning to `O=C(O)c1cn(C2CC2)c2cc(N3CCNCC3)c(F)cc2c1=O` [Sample 2], the “Weight Loss on Drying” value in data set [1] is reported as 11.1%. Also, the “particle size D90” value in data set [2] is given as “around 60 μm”.
